Measured values: US11945812B2, “Annulated 2-amino-3-cyano thiophenes and derivatives for the treatment of cancer” (Boehringer Ingelheim International GmbH, priority 2020, dated 2024)
Read-outs that look alike come from different tables or passages of the source.

Experiments:
[1] = tested on: ERK phosphorylation in NCI-H358_Cas9_SOS2; assay: ERK phosphorylation assay 2 (AlphaLISA SureFire Ultra p-ERK1/2), SOS2 knock-out; assay type: cell-based; settings: Homo sapiens, NCI-H358; assay 2 (marked with *); read-out: IC50 H358 pERK
Description: (§1) ERK Phosphorylation Assay
(§2) Materials Used for the Assay;

[2] = tested on: SW837 cells; assay: SW837 CTG proliferation assay (CRC); assay type: cell-based; settings: Homo sapiens
Experimental: SW837 CTG Proliferation Assay (CRC)
SW837 cells (ATCC #CCL-235) were grown in cell culture flasks (175 cm^2) using L-15 10% FCS, 1% L-Glu, 1×NEAA and 1×Na-Pyrovat. Cultures were incubated at 37° C. and 0% CO2 in a humidified atmosphere, with medium change or subcultivation 2-3 times a week. Materials used for the assay were CulturPlate-384, White Opaque 384-well Microplate, Sterile and Tissue Culture Treated (Perkin Elmer #6007680), Leibovitz L15 Medium and FBS # SH30071.03 (HyClone).
(§3) The proliferation assays started (day1) with seeding cells in flat bottom 384 well microtiter plates in 90 μL L-15 10% FCS, 1% L-Glu, 1×NEAA and 1× Na-Pyrovat at a density of 500 cells/well. Any other luminescence compatible plate format is possible. On day 2, 10 μL dilutions of the test compounds covering a concentration range between app. 0, 1 and 10.000 nM were added to the cells. Cells were incubated for 5 days in a humidified, CO2 controlled (no CO2) incubator at 37° C. On day 7 100 μL of Cell Titer Glow reagent (Cell titer Glo Luminescent Cat. No. G7571, Promega) were added to each well and incubated for additional 10 min at room temperature (with agitation). Luminescence was measured on a Wallac Victor using standard luminescence read out. IC50 values were calculated using standard Levenburg Marquard algorithms (GraphPad Prism).

[3] = target: Ba/F3 cells bearing a KRAS G12C mutation (Homo sapiens, UniProt P01116, G12C, cells depend on it); assay: Ba/F3 cell model proliferation assay (AlamarBlue, 72 h); assay type: cell-based; settings: Ba/F3 KRAS G12C cells, 72 h, 10% FCS, uncorrected; read-out: IC50 Ba/F3 KRASG12C
Ba/F3 cells bearing a KRAS G12C mutation, sequence (P01116 whole entry G12C): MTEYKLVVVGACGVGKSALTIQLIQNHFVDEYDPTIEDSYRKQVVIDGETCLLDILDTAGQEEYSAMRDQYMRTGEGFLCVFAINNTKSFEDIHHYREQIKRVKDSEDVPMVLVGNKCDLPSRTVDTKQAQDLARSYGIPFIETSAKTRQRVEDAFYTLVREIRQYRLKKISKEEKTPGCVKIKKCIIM
Experimental: Ba/F3 Cell Model Generation and Proliferation Assay
Plasmids containing KRASG12 mutants were obtained from GeneScript. To generate KRASG12-dependent Ba/F3 models, Ba/F3 cells were transduced with retroviruses containing vectors that harbor KRASG12 isoforms. Platinum-E cells (Cell Biolabs) were used for retrovirus packaging. Retrovirus was added to Ba/F3 cells. To ensure infection, 4 μg/mL polybrene was added and cells were spinfected. […] Cells with an infection efficiency of 10% to 20% were further cultivated and puromycin selection with 1 μg/mL was initiated. As a control, parental Ba/F3 cells were used to show selection status. Selection was considered successful when parental Ba/F3 cells cultures died. To evaluate the transforming potential of KRASG12 mutations, the growth medium was no longer supplemented with IL-3. Ba/F3 cells harboring the empty vector were used as a control. Approximately ten days before conducting the experiments, puromycin was left out.
All treatments were performed in technical duplicates. The assay is run using a fully automated robotic system. Treated cells were incubated for 72 h at 37° C. with 5% CO2. AlamarBlue™ (ThermoFisher), a viability stain, was added and fluorescence measured in the PerkinElmer Envision HTS Multilabel Reader.

[4] = target: T1, KRAS G12C::SOS1 protein-protein interaction (Homo sapiens, UniProt P01116, C118S/C51S/C80L/G12C); assay: KRAS::SOS1 AlphaScreen binding assay
T1 construct: His6 (N); host or cells: E. coli
T1 sequence (P01116 1-169 isoform P01116-2 G12C/C51S/C80L/C118S): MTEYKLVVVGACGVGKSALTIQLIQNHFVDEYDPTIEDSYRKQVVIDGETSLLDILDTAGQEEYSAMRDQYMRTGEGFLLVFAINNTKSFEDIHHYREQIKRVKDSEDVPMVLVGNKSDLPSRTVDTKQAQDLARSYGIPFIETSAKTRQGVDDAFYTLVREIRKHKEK
Description: KRAS::SOS1 AlphaScreen Binding Assay
Reagents: • GST-tagged SOS1 (564_1049_GST_TEV_ECO) produced in-house • GST-TEV-SOS1 (564-1049) is purchased from Viva Biotech Ltd. • The expression construct of KRAS G12C (amino acids 1-169 of reference sequence P01116-2 (uniprot), with additional mutations: C51S, C80L, and C118S) containing a C-terminal avi-tag was obtained by gene synthesis (GeneArt, Thermo Fisher) in donor vector (pDONR-221) and transferred by recombinant cloning into pDEST17 vector bearing an N-terminal His6-tag. The protein was expressed in E. coli and the purified protein was biotinylated with the E. coli biotin ligase (BirA) before usage. • GDP (Sigma Cat No G7127) • AlphaLISA Glutathione Acceptor Beads (PerkinElmer, Cat No AL109) • AlphaScreen Streptavidin Donor Beads (PerkinElmer Cat No 6760002) • Assay plates: Proxiplate-384 PLUS, white (PerkinElmer, Cat No 6008289)
Assay Buffer: • 1×PBS • 0.1% BSA • 0.05% Tween 20
7.5 nM (final assay concentration) KRAS G12C, 10 μM (final assay concentration) GDP and 5 nM (final assay concentration) GST-SOS1 are mixed in assay buffer prior to use and kept at room temperature.
AlphaLISA Glutathione Acceptor Beads and AlphaScreen Streptavidin Donor Beads are mixed in assay buffer at a concentration of 10 μg/mL (final assay concentration) each prior to use and kept at room temperature.
Compounds are diluted to a final start concentration of 100 μM and are tested in duplicate. Assay-ready plates (ARPs) are generated using an Access Labcyte Workstation with a Labcyte Echo 550 or 555 accoustic dispenser. For compound a start concentration of 100 μM, 150 nL of compound solution is transferred per well in 11 concentrations in duplicate with serial 1:5 dilutions.
The assay is run using a fully automated robotic system in a darkened room below 100 Lux. 10 μL of KRAS::SOS1 GDP mix is added into columns 1-24 to the 150 nL of compound solution (final dilution in the assay 1:100, final DMSO concentration 1%).
After 30 minutes incubation time 5 μL of bead mix is added into columns 1-23. Plates are kept at room temperature in a darkened incubator. After further 60 minutes incubation, the signal is measured using a PerkinElmer Envision HTS Multilabel Reader using the AlphaScreen specifications from PerkinElmer. Each plate contains the following controls: • diluted DMSO+KRAS::SOS1 GDP mix+bead mix • diluted DMSO+KRAS::SOS1 GDP mix
IC50 values are calculated and analyzed using a 4 parametric logistic model.
Tables of example compounds disclosed herein contain IC50 values determined using the above assay.

[5] = tested on: NCI-H358 cells; assay: NCI-H358 CTG proliferation assay (120 h) (NSCLC); assay type: cell-based; settings: Homo sapiens, read-out: IC50 NCl-H358
Experimental: NCI-H358 CTG Proliferation Assay (120 h) (NSCLC)
NCI-H358 cells (ATCC No. CRL-5807) were dispensed into white bottom opaque 96 well plates (Perkin Elmer cat no. 5680) at a density of 2000 cells per well in 100 μL RPMI-1640 ATCC-Formulation (Gibco # A10491)+10% FCS. Cells were incubated overnight at 37° C. in a humidified tissue culture incubator at 5% CO2. Compounds (10 mM stock in DMSO) were added at logarithmic dose series using the HP Digital Dispenser D300 (Tecan), normalizing for added DMSO. For the TO time point measurement, untreated cells were analyzed at the time of compound addition. Plates were incubated for 120 hours, and cell viability was measured using CellTiter-Glo luminescent cell viability reagent (Promega product code G7570). Viability (stated as percent of control) is defined as relative luminescence units RLU of each well divided by the RLU of cells in DMSO controls. IC50 values were determined from viability measurements by non-linear regression using a four parameter model.

[6] = tested on: MiaPaCa-2 cells; assay: MiaPaCa-2 CTG proliferation assay (pancreatic cancer); assay type: cell-based; settings: Homo sapiens, MIA PaCa-2, 120 h, read-out: IC50 MiaPACA2
Experimental: MiaPaCa-2 CTG Proliferation Assay (Pancreatic Cancer)
MiaPaCa-2 cells (ATCC® CRM-CRL-1420™) were grown in cell culture flasks (175 cm^2) using DMEM medium supplemented with 10% fetal bovine serum. […] Materials used for the assay were CulturPlate-384, White Opaque 384-well microplate, Sterile and Tissue Culture Treated (Perkin Elmer #6007680), DMEM medium and FBS # SH30071.03 (HyClone).
as §3, with “μL DMEM medium supplemented with” for “μL L-15”, “10% FBS” for “10% FCS, 1% L-Glu, 1×NEAA and 1× Na-Pyrovat”, “humidified, incubator with 5%” for “humidified,”, “CO2” for “CO2 controlled (no CO2) incubator”, “100 μl” for “100 μL”

[7] = Plasma protein binding (equilibrium dialysis), mouse plasma; assay type: in vitro ADME; settings: read-out: PPB mouse fu
Experimental: (§4) Plasma Protein Binding (PPB)
(§5) Binding of test compound to plasma was determined using equilibrium dialysis (ED) and quantitative mass spectrometry interfaced with liquid chromatography (LC-MS). In brief, ED was performed with dialysis devices consisting of two chambers separated by a semipermeable membrane with a molecular weight cut-off of 5-10 kg/mol. One chamber was filled with commercially sourced plasma (mouse and human plasma, respectively) or serum (10% FCS in PBS) containing 1-10 μmol/L test compound and the other chamber was filled with phosphate-buffer saline (PBS) with or without dextran. The dialysis chamber was incubated for 3-5 hours at 37° C. After incubation, protein was precipitated from aliquots of each chamber and the concentration of test compound in the supernatant of the plasma-containing compartment (cplasma) and of the buffer-containing compartment (Cbuffer) was determined by LC-MS. The fraction of unbound test compound (not bound to plasma) (fu) was calculated according to the following equation: […]

[8] = Plasma protein binding (equilibrium dialysis), serum 10% FCS in PBS; assay type: in vitro ADME; settings: bovine, 10% FCS in PBS (serum), read-out: PPB 10% FCS fu
Experimental: as §4, §5

[9] = Plasma protein binding (equilibrium dialysis), human plasma; assay type: in vitro ADME; settings: read-out: PPB human fu
Experimental: as §4, §5

[10] = tested on: ERK phosphorylation in NCI-H358 (KRAS G12C mutation); assay: ERK phosphorylation assay 1 (AlphaLISA SureFire Ultra p-ERK1/2); assay type: cell-based; settings: Homo sapiens, assay 1 (not marked with *), read-out: IC50 H358 pERK
Description: as §1, §2

[11] = SW837 CTG proliferation, read-out: IC50 SW837
[12] = MiaPaCa-2 CTG proliferation, 5 days

Row | IC50 [1] | IC50 [2, 11] | GI50 [3] | IC50 ([4]; KRAS G12C::SOS1 AlphaScreen) | IC50 [5] | IC50 [6, 12] | IC50 ([2]; SW837, read-out: IC50 SW837) | fraction unbound [7] | fraction unbound [8] | fraction unbound [9] | IC50 [6] | IC50 [10] | IC50 ([4]; KRAS G12C 7.5 nM, GST-SOS1 5 nM, GDP 10 μM) | Compound
1 | 3.7 nM | 3.67 nM | 2.3 nM | 2 nM | 4.75 nM | 9.01 nM | – | – | – | – | – | – | – | C=CC(=O)N1CCN(c2cc(O[C@@H](C)[C@@H]3CCCN3C)nc(-c3cc([C@@]4(C)CCCc5sc(N)c(C#N)c54)no3)n2)[C@H](C)C1 [Ic-2]
2 | 1.6 nM | 1.3 nM | 1.5 nM | 3 nM | 3.13 nM | 23.8 nM | – | – | – | – | – | – | – | C=CC(=O)N1CCN(c2cc(O[C@@H](C)[C@@H]3CCCN3C)nc(-c3cc(C4(C)CCCc5sc(N)c(C#N)c54)no3)n2)CC1 (stereo partly shown) [Ic-1]
3 | – | – | – | – | – | – | 17 nM | 0.094 | 0.774 | 0.027 | 49 nM | – | – | C=CC(=O)N1CCN(c2nc(=O)n(-c3c(C)ccnc3C(C)C)c3nc(-c4c(O)cccc4F)c(F)cc23)[C@@H](C)C1 [sotorasib, reference compound]
4 | – | – | – | – | – | – | – | – | – | – | – | 125 nM | 280 nM | C=CC(=O)N1CCN(c2cc(N3CCN(C)CC3)nc(-n3cc(C4(C)CCCc5sc(N)c(C#N)c54)cn3)c2)CC1 (stereo not shown) [Ie-1]
